Our source for the Activity values is ChEMBL document CHEMBL2073847, “Inhibition of the CYP3A4-mediated metabolism and P-glycoprotein-mediated transport of the HIV-1 protease inhibitor saquinavir by grapefruit juice components” (Br J Clin Pharmacol, 1999).

Data set [1] has as its target T1, ATP-dependent translocase ABCB1 (Homo sapiens, UniProt P08183). The data set is described as follows: TP_TRANSPORTER: inhibition of Saquinavir transepithelial transport (basal to apical) in Caco-2 cells. The format is functional, cell-based.
In data set [2] the target is T1, ATP-dependent translocase ABCB1. The data set is described as follows: TP_TRANSPORTER: transepithelial transport (basal to apical) in Caco-2 cells. The format is functional, cell-based.

T1 sequence (P08183 whole entry): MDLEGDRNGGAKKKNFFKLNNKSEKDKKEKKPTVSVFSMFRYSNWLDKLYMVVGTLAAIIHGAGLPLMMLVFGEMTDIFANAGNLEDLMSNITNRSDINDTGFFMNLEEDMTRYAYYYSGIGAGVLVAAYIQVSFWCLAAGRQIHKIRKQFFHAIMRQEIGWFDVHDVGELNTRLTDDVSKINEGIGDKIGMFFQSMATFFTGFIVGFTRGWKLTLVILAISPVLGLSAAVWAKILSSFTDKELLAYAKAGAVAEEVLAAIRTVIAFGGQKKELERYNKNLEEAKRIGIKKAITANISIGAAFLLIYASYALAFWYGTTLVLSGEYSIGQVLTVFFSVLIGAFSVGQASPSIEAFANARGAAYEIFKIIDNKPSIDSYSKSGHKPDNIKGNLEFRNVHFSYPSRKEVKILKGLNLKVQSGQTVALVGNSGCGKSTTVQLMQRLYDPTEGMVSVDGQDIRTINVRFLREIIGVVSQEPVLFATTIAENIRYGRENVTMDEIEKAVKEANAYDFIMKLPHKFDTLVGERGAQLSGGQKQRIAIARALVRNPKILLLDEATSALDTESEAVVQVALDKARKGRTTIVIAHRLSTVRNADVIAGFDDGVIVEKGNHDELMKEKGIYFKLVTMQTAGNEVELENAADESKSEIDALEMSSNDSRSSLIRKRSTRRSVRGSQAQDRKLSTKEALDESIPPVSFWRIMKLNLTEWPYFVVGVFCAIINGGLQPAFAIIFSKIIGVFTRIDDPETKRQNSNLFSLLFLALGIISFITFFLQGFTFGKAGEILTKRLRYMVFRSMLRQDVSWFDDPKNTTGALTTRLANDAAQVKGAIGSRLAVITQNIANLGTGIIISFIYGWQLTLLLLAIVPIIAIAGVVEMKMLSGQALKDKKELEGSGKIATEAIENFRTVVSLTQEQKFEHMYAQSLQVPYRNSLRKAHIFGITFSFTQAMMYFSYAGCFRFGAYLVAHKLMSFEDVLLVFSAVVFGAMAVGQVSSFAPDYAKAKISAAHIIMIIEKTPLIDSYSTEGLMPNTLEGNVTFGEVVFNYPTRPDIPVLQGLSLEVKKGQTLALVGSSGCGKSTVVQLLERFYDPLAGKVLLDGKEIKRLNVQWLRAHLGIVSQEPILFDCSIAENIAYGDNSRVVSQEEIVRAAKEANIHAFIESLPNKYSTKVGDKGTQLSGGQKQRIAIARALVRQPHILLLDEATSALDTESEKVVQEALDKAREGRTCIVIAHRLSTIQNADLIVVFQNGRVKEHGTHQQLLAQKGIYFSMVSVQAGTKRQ

In the case of `CC(C)=CCC/C(C)=C/COc1c2ccoc2cc2oc(=O)ccc12` [BERGAMOTTIN], the Activity result in data set [1] is “is not an inhibitor [-]”.

In the case of `C/C(=C\COc1c2ccoc2cc2oc(=O)ccc12)CC[C@@H](O)C(C)(C)O`, in data set [1], the Activity result is “is not an inhibitor [-]”. On to `O=C1C[C@@H](c2ccc(O)cc2)Oc2cc(O)cc(O)c21` [NARINGENIN], for which the Activity result in data set [1] is “inhibitor [+]”. For `CC(C)(C)NC(=O)[C@@H]1C[C@@H]2CCCC[C@@H]2CN1C[C@@H](O)[C@H](Cc1ccccc1)NC(=O)[C@H](CC(N)=O)NC(=O)c1ccc2ccccc2n1` [SAQUINAVIR], the Activity entry in data set [2] is “substrate [+]”.

Turning to `C[C@@H]1O[C@@H](O[C@H]2[C@H](Oc3cc(O)c4c(c3)O[C@H](c3ccc(O)cc3)CC4=O)O[C@H](CO)[C@@H](O)[C@@H]2O)[C@H](O)[C@H](O)[C@H]1O` [NARINGIN], the Activity entry in data set [1] was “inhibitor [+]”.
